In patent EP4545091A1 (priority 2023, dated 2025):
Bridges are numbered along the chain shown (N, C = ends).

Tests used:
Omicron XBB.1.5 spike = format: cell-based, SARS-CoV-2
[1] = tested on: SARS-CoV-2 Omicron BA.1 variant; details: 48 h

VAACNLPIVRGPCRAFIQLWAFDAVKGKCVLFPYGGCQGNGNKFYSEKECREYCGVPGDGD (disulfide 4-54, 13-37, 29-50) [Trypstatin]
activity against Omicron XBB.1.5 variant in a pseudoparticle assay (Omicron XBB.1.5 spike): verified activity
IC50 [1]: 120 nM
